The test system of test [1] is human immunodeficiency virus (HIV). As to the kind of experiment: Antiviral activity in HIV-infected (Nef substituted with EGFP) MT-4 cells: GFP fluorescence, HIV-1 p24 Antigen Capture Assay. Format: cell-based. The following applies: 1 nM, 3 days. How it is done:
Thereafter, the cultured cells were centrifuged at 6,000 rpm for 3 minutes to obtain a cell pallet. Then, fluorescence intensity of a green fluorescence protein (GFP) secreted from the obtained cells was measured, a level of viral infection was confirmed using an HIV-1 p24 Antigen Capture Assay kit (Advanced BioScience Laboratories), and cell viability was determined using an MTT assay. 0.5% DMSO and 1 nM 3′-azido-3′-deoxy-thyminine (AZT) were used as the negative and positive controls, respectively.

Test [2] has as its target HIV reverse transcriptase (Human immunodeficiency virus type 1 group M subtype B, UniProt P04585). As to the kind of experiment: Inhibition of reverse transcriptase activity, Enzchek Reverse Transcriptase assay kit. Format: biochemical. The following applies: positive controls, FIG. 3.

Molecules are shown by their SMILES.

In test [1], `Cc1cn([C@H]2C[C@H](N=[N+]=[N-])[C@@H](CO)O2)c(=O)[nH]c1=O` [AZT, 3′-azido-3′-deoxy-thyminine] yielded an antiviral activity of 49.8%. Moreover, the “inhibition of reverse transcriptase activities (in words)” value (from here on “inhibition”) in test [2] was “not inhibited”. With `Cc1cc(C#N)cc(C)c1Oc1nc(Nc2ccc(C#N)cc2)nc(N)c1Br` [Etravirine], the “inhibition” value in test [2] is “increasingly expressed according to a concentration”. As to `Cc1cn([C@H]2C[C@H](N=[N+]=[N-])[C@@H](CO[P@](=O)(O)O[P@](=O)(O)OP(=O)(O)O)O2)c(=O)[nH]c1=O` [AZTTP], the “inhibition” value in test [2] was “increasingly expressed according to a concentration”.

For the origin of these results see US9084758B2, “Antiviral compositions comprising ethanol extract of Tetracera scandens and use thereof” (The Catholic University of Korea Industry-Academic …, priority 2012, dated 2015).
